Source: PubChem BioAssay AID1963968 (Molecular Pharmacology Branch, DTP, NCI, 2024)

System: 945468-187-T-J3-PDC spheroids with HUVEC/MSC, viability
Assay: Anticancer human tumor 945468-187-T-J3-PDC patient-derived rectal carcinoma cell line growth inhibition [PI3K]
Settings: for IC50: curve of first compound; for viability, T/C: stronger effect = lower value
Text: Combinatorial screen of targeted agents with the PI3K inhibitors inavolisib, alpelisib, duvelisib, and copanlisib in multi-cell type tumor spheroids
A high-throughput screen of multi-cell type tumor spheroids was designed to identify active combinations of targeted small molecules and PI3K pathway inhibitors. Complex spheroids include a stromal component modeled by human endothelial cells (HUVEC) and fibroblasts modeled by human mesenchymal stem cells (MSCs). The concentration ranges selected for each drug and investigational agent were based upon clinically achievable concentrations if the clinical Cmax of the agent was known.
Compounds. The drugs and investigational agents: inavolisib (NSC800729), alpelisib (NSC765974), duvelisib (NSC772469), copanlisib (NSC816437), ipatasertib (NSC767898), afuresertib (NSC778305), talazoparib (NSC767125), sapanisertib (NSC764658), selumetinib (NSC741078), tovorafenib (DAY101, NSC766906), vemurafenib (NSC761431), ravoxertinib (NSC781343), sotorasib (NSC818433), MRTX1133 (NSC 836407), abemaciclib (NSC 768073), palbociclib (NSC758247), venetoclax (NSC 766270), SY5609 (NSC837396), enzalutamide (NSC755605), and darolutamide (NSC825331), were obtained from the National Cancer Institute (NCI) Developmental Therapeutics Program Chemical Repository. The FDA-approved anticancer drug set is available from the NCI Developmental Therapeutics Program. […] The stock solutions were prepared in dimethyl sulfoxide (DMSO, Sigma-Aldrich, St. Louis, MO, cat. D2650) at 800-fold the tested concentration and stored at -70 degrees C prior to their use. All drugs and investigational agents were tested over a range starting from a high concentration at or near the clinical Cmax and decreasing in half-log increments. If the clinical Cmax for an agent had not been determined, the highest concentration tested was 10 microM.
Cell Culture. All cells were maintained in an incubator at 37 degrees C and 5% CO2 with 95% humidity. The PDC lines were cultured according to standard operating procedures established by the NCI PDMR (https://pdmr.cancer.gov/sops/default.htm). All PDCs were thawed and cultured in Matrigel-coated flasks prepared with a working solution of 1X Ham's F-12 nutrient mix, without supplementation (Invitrogen, Waltham, MA, cat. 11765054), 100 U/mL penicillin-streptomycin (Invitrogen, cat. 15140122), and 2.5% Matrigel (Corning Inc., Corning, NY, cat. 354248) for the first three passages. The 354836-022-R-J1-PDC, 475296-252-R-J1-PDC, and 997726-040-R-J2-PDC lines were cultured in 6A media, which includes advanced DMEM/F-12 (Thermo Fisher Scientific, cat. 12634028), 10 mM HEPES (Thermo Fisher Scientific, cat. 15630080), 1X GlutaMAX supplement (Thermo Fisher Scientific, cat. 35050061), 0.1 mg/mL primocin (InvivoGen, San Diego, CA, cat. ant-pm-2), 10% defined fetal bovine serum, heat inactivated (HyClone Laboratories Inc., Logan, UT, cat. SH30070.03HI), 50% L-WRN conditioned media (ATCC, cat. CRL-3276), 1.25 mM N-Acetyl-L-cysteine (Sigma-Aldrich, cat. A9165), 10 mM nicotinamide (Sigma-Aldrich, cat. N0636), 1X B-27 supplement (Thermo Fisher Scientific, cat. 17504044), 1X N-2 supplement (Thermo Fisher Scientific, cat. 17502048), and 10 microM Y-27632 dihydrochloride (Tocris Bioscience, Bristol, United Kingdom, cat. 1254). The 624824-186-R-J2-PDC line was cultured in 6C/Colon 1B media, which includes all 6A media components plus 50 ng/mL human EGF recombinant protein (Thermo Fisher Scientific, cat. PHG0311). […]

[1] = second compound 0.00316 µM, first compound 0.0316 µM
[2] = second compound 0.00316 µM, first compound 0.1 µM
[3] = second compound 0.01 µM, first compound 0.0316 µM
[4] = second compound 0.01 µM, first compound 0.1 µM
[5] = second compound 0.0316 µM, first compound 0.0316 µM
[6] = second compound 0.0316 µM, first compound 0.1 µM
[7] = second compound 0.1 µM, first compound 0.0316 µM
[8] = second compound 0.1 µM, first compound 0.1 µM
[9] = second compound 0.316 µM, first compound 0.0316 µM
[10] = second compound 0.316 µM, first compound 0.1 µM
[11] = second compound 1 µM, first compound 0.0316 µM
[12] = second compound 1 µM, first compound 0.1 µM
[13] = second compound 0.00316 µM, first compound 0.316 µM
[14] = second compound 0.00316 µM, first compound 1 µM
[15] = second compound 0.00316 µM, first compound 3.16 µM
[16] = second compound 0.00316 µM, first compound 10 µM
[17] = second compound 0.01 µM, first compound 0.316 µM
[18] = second compound 0.01 µM, first compound 1 µM
[19] = second compound 0.01 µM, first compound 3.16 µM
[20] = second compound 0.01 µM, first compound 10 µM
[21] = second compound 0.0316 µM, first compound 0.316 µM
[22] = second compound 0.0316 µM, first compound 1 µM
[23] = second compound 0.0316 µM, first compound 3.16 µM
[24] = second compound 0.0316 µM, first compound 10 µM
[25] = second compound 0.1 µM, first compound 0.316 µM
[26] = second compound 0.1 µM, first compound 1 µM
[27] = second compound 0.1 µM, first compound 3.16 µM
[28] = second compound 0.1 µM, first compound 10 µM
[29] = second compound 0.316 µM, first compound 0.316 µM
[30] = second compound 0.316 µM, first compound 1 µM
[31] = second compound 0.316 µM, first compound 3.16 µM
[32] = second compound 0.316 µM, first compound 10 µM
[33] = second compound 1 µM, first compound 0.316 µM
[34] = second compound 1 µM, first compound 1 µM
[35] = second compound 1 µM, first compound 3.16 µM
[36] = second compound 1 µM, first compound 10 µM
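Also: spheroids exposed to agents for 7 days before viability read.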
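For viability, T/C in this document: 100% = DMSO vehicle control viability.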

CC(=O)c1c(C)c2cnc(Nc3ccc(N4CCNCC4)cn3)nc2n(C2CCCC2)c1=O + COc1c(OCCCN2CCOCC2)ccc2c3n(c(=NC(=O)c4cnc(N)nc4)nc12)CCN3
IC50 (second compound 0.00316 µM): > 0.1 µM
IC50 (second compound 0.01 µM): > 0.1 µM
IC50 (second compound 0.0316 µM): > 0.1 µM
IC50 (second compound 0.1 µM): < 0.000316 µM
IC50 (second compound 0.316 µM): < 0.000316 µM
IC50 (second compound 1 µM): < 0.000316 µM
viability, T/C (second compound 0.00316 µM, first compound 0.000316 µM): 99%
viability, T/C (second compound 0.00316 µM, first compound 0.001 µM): 106%
viability, T/C (second compound 0.00316 µM, first compound 0.00316 µM): 118%
viability, T/C (second compound 0.00316 µM, first compound 0.01 µM): 92.3%
viability, T/C [1]: 103%
viability, T/C [2]: 101%
viability, T/C (second compound 0.01 µM, first compound 0.000316 µM): 92.4%
viability, T/C (second compound 0.01 µM, first compound 0.001 µM): 87.1%
viability, T/C (second compound 0.01 µM, first compound 0.00316 µM): 90.3%
viability, T/C (second compound 0.01 µM, first compound 0.01 µM): 97.5%
viability, T/C [3]: 95.7%
viability, T/C [4]: 104%
viability, T/C (second compound 0.0316 µM, first compound 0.000316 µM): 82.9%
viability, T/C (second compound 0.0316 µM, first compound 0.001 µM): 90.3%
viability, T/C (second compound 0.0316 µM, first compound 0.00316 µM): 89.9%
viability, T/C (second compound 0.0316 µM, first compound 0.01 µM): 85.2%
viability, T/C [5]: 89%
viability, T/C [6]: 74.8%
viability, T/C (second compound 0.1 µM, first compound 0.000316 µM): 43.1%
viability, T/C (second compound 0.1 µM, first compound 0.001 µM): 48.6%
viability, T/C (second compound 0.1 µM, first compound 0.00316 µM): 48.7%
viability, T/C (second compound 0.1 µM, first compound 0.01 µM): 37.6%
viability, T/C [7]: 37.9%
viability, T/C [8]: 32.5%
viability, T/C (second compound 0.316 µM, first compound 0.000316 µM): 23%
viability, T/C (second compound 0.316 µM, first compound 0.001 µM): 20.6%
viability, T/C (second compound 0.316 µM, first compound 0.00316 µM): 20%
viability, T/C (second compound 0.316 µM, first compound 0.01 µM): 19.2%
viability, T/C [9]: 19.6%
viability, T/C [10]: 17.6%
viability, T/C (second compound 1 µM, first compound 0.000316 µM): 16%
viability, T/C (second compound 1 µM, first compound 0.001 µM): 17.7%
viability, T/C (second compound 1 µM, first compound 0.00316 µM): 16.7%
viability, T/C (second compound 1 µM, first compound 0.01 µM): 16.2%
viability, T/C [11]: 13.6%
viability, T/C [12]: 14.1%

CC1(C)CCC(Nc2ncc(C(F)(F)F)c(-c3c[nH]c4c(P(C)(C)=O)c(C#N)ccc34)n2)CN1 (stereo unspecified) + CC(Nc1ccc2c(c1)OCCn1cc(N3C(=O)OCC3C(F)F)nc1-2)C(N)=O
IC50 (second compound 0.00316 µM): 5.65 µM
IC50 (second compound 0.01 µM): 5.69 µM
IC50 (second compound 0.0316 µM): 5.24 µM
IC50 (second compound 0.1 µM): 5.3 µM
IC50 (second compound 0.316 µM): 3.77 µM
IC50 (second compound 1 µM): 1.99 µM
viability, T/C [1]: 83.5%
viability, T/C [2]: 85.8%
viability, T/C [13]: 69.1%
viability, T/C [14]: 85.8%
viability, T/C [15]: 86.1%
viability, T/C [16]: 18.5%
viability, T/C [3]: 83.8%
viability, T/C [4]: 83.5%
viability, T/C [17]: 72.3%
viability, T/C [18]: 94.7%
viability, T/C [19]: 96.6%
viability, T/C [20]: 15.1%
viability, T/C [5]: 82.9%
viability, T/C [6]: 77.4%
viability, T/C [21]: 71.2%
viability, T/C [22]: 79.8%
viability, T/C [23]: 87.3%
viability, T/C [24]: 11.8%
viability, T/C [7]: 86.1%
viability, T/C [8]: 88.6%
viability, T/C [25]: 70.8%
viability, T/C [26]: 77.6%
viability, T/C [27]: 82%
viability, T/C [28]: 11.9%
viability, T/C [9]: 82.4%
viability, T/C [10]: 79.2%
viability, T/C [29]: 80.7%
viability, T/C [30]: 61.4%
viability, T/C [31]: 63.2%
viability, T/C [32]: 8.03%
viability, T/C [11]: 80.7%
viability, T/C [12]: 62.4%
viability, T/C [33]: 62%
viability, T/C [34]: 51.6%
viability, T/C [35]: 52.2%
viability, T/C [36]: 4.39%

C=CC(=O)N1CCN(c2nc(=O)n(-c3c(C)ccnc3C(C)C)c3nc(-c4c(O)cccc4F)c(F)cc23)C(C)C1 (stereo unspecified) + COc1c(OCCCN2CCOCC2)ccc2c3n(c(=NC(=O)c4cnc(N)nc4)nc12)CCN3
IC50 (second compound 0.00316 µM): > 10 µM
IC50 (second compound 0.01 µM): > 10 µM
IC50 (second compound 0.0316 µM): > 10 µM
IC50 (second compound 0.1 µM): < 0.0316 µM
IC50 (second compound 0.316 µM): < 0.0316 µM
IC50 (second compound 1 µM): < 0.0316 µM
viability, T/C [1]: 97.2%
viability, T/C [2]: 109%
viability, T/C [13]: 125%
viability, T/C [14]: 89.9%
viability, T/C [15]: 95.8%
viability, T/C [16]: 99.4%
viability, T/C [3]: 105%
viability, T/C [4]: 90%
viability, T/C [17]: 94.1%
viability, T/C [18]: 97.5%
viability, T/C [19]: 101%
viability, T/C [20]: 92.4%
viability, T/C [5]: 95.4%
viability, T/C [6]: 86.7%
viability, T/C [21]: 86.6%
viability, T/C [22]: 88.2%
viability, T/C [23]: 95.1%
viability, T/C [24]: 96.9%
viability, T/C [7]: 49.2%
viability, T/C [8]: 48.2%
viability, T/C [25]: 57.6%
viability, T/C [26]: 62%
viability, T/C [27]: 75.2%
viability, T/C [28]: 74.3%
viability, T/C [9]: 20.3%
viability, T/C [10]: 20.9%
viability, T/C [29]: 21.1%
viability, T/C [30]: 22.6%
viability, T/C [31]: 22.9%
viability, T/C [32]: 28.9%
viability, T/C [11]: 17%
viability, T/C [12]: 18.3%
viability, T/C [33]: 14.3%
viability, T/C [34]: 15.5%
viability, T/C [35]: 17.5%
viability, T/C [36]: 19%
